# From patent US12233070B2, “Methods for treating benzodiazepine misuse/use disorder” (University of M[…] Center, priority 2020, dated 2025)
# Marks after values point to notes of the source that are not given here.
# What was measured:
# Sprague-Dawley rats = assay: Precipitated withdrawal/acute dependence: responding 60 min after diazepam bolus; type: in vivo, rat; settings: all doses tested, vs ligand alone; FIGS. 11A and 11B
# Procedure: Acute dependence can occur after single exposures to the benzodiazepine chlordiazepoxide, but not to an α2/3GABAA selective ligand (Fischer et al. 2013, Psychopharmacology 227: 347-54). Here, the extent to which TPA023B can precipitate withdrawal in rats following a single, large bolus dose of diazepam was studied. […] Once rates of responding were stable, doses of diazepam, the non-selective benzodiazepine antagonist flumazenil, and TPA023B were administered prior to the session.
# [1] = target: α1 subunit-containing GABAA receptors (Homo sapiens, UniProt P14867+P18507); design: key to Subtype α1: act as partial positive modulators for particular subtype combinations; none: zero efficacy (i.e., antagonism) at other subtypes; settings: cited from earlier work
# rhesus monkeys [2] = assay: Conflict model of anxiolysis (mult FR, FR+PUN); type: in vivo, rhesus monkey; settings: i.v.; for Non-Suppressed, Mean responses/s (SEM) / Suppressed, Mean responses/s (SEM): N = 4 monkeys
# Text: The conflict procedure methodology includes a two-component multiple fixed-ratio, fixed-ratio plus punishment schedule (mult FR, FR+PUN). An important feature of this model is that it is highly predictive of clinically active doses in human subjects (Rowlett et al. 2006, Psychopharmacology 184: 201-11). One component of this schedule was associated with a distinctive visual stimulus (e.g., red light) and the other component was associated with a different stimulus (e.g., green light). In each component, completion of 10 responses (FR 10) produced a food pellet followed by a brief (10 sec) timeout period. The component ended following delivery of 5 food pellets or 5 min, whichever occurred first. A 10-min timeout period occurred before each of four cycles with two components (1 red, 1 green) per cycle. When performance in both components of the multiple schedule was stable, responding in one component was suppressed by superimposing a FR schedule of response-produced electric shock. Under the superimposed schedule, every nth response (n=15-25, adjusted for each monkey depending on individual performance) produced shock. Once responding was stable (at least three sessions in which suppressed responding was less than 50% of non-suppressed responding, with no upward or downward trend in response rates in either component), investigational compounds were administered i.v. during the extended timeout periods using a cumulative dosing technique. This technique allowed determination of a four-point dose-response function in a single session.
# Table 2 summarizes data for TPA023B in the conflict procedure (n=4 monkeys, 2 females and 2 males), with alprazolam as a positive control. Average responses when vehicle was administered was 2.2 in the non-suppressed component, decreased by ˜98% by shock presentation in the suppressed component (mean=0.05 responses). For non-suppressed responding, TPA023B had no effects on mean rates of responding or percent of control over a 100-fold dose range (0.01 to 1.0 mg/kg, i.v.). […] This effect was similar to that observed with 0.03 mg/kg, i.v., of alprazolam. A striking characteristic of TPA023B in this procedure is the lack of attenuation of rates of responding at higher doses.
# rhesus monkeys [3] = assay: Food self-administration (PR) after TPA023B pretreatment; type: in vivo, rhesus monkey; settings: up to 0.3 mg/kg TPA023B i.v. pretreatment; 2 pellets/delivery
# Text: To evaluate the extent to which suppression of lever-pressing behavior by TPA023B represents non-specific inhibition, we also tested food self-administration under the PR schedule. For these experiments, test sessions were scheduled similar to those with midazolam dose/vehicle, except that 2 food pellets (1-g BioServ flavored food pellets) were available as reinforcers rather than midazolam dose. All other aspects of the test was the same, including response requirements and TPA023B pretreatment conditions.
# rhesus monkeys [4] = assay: i.v. self-administration under progressive-ratio (PR) schedule; type: in vivo, rhesus monkey; settings: dose at which self-administration was highest; n=4 monkeys; FIG. 5
# Text: The abuse potential of novel compounds can be determined by use of i.v. self-administration procedures, in which a compound is available to a subject previously trained to press a lever to obtain a known drug of abuse. Our standard procedure is to use a progressive-ratio (PR) schedule, in which an increasing number of responses are required to obtain an injection. The last response requirement completed is referred to as a “break point” (BP) and represents the maximum amount of “work” a subject will perform to obtain the drug or compound.
# In the present example, eight rhesus monkeys (4 females, 4 males) were trained to respond under a schedule of i.v. midazolam (a conventional benzodiazepine) injection at 0.03 mg/kg/injection. Once self-administration had been acquired (>20 injections/daily 2-hour sessions), monkeys were trained under the PR schedule as described by Shinday et al. (2013). Daily experimental sessions consisted of five components, each made up of four trials (i.e., 20 trials total). […]
# In order to directly compare lorazepam and TPA023B self-administration, we here analyzed BP values at the doses that maintained the highest level of mean injections/session and compared these BP values with those obtained after vehicle tests.
# rodent, squirrel monkey = settings: rodent rotarod and chain-pulling, squirrel monkey lever pressing; cited from earlier work
# [5] = system: CNS benzodiazepine binding sites; settings: 1.5 mg/70 kg oral, PET; cited from earlier work
# rhesus monkeys [6] = settings: visual recognition memory and spatial working memory; cited from earlier work
# Chain of α1 subunit-containing GABAA receptors (P14867 28-456): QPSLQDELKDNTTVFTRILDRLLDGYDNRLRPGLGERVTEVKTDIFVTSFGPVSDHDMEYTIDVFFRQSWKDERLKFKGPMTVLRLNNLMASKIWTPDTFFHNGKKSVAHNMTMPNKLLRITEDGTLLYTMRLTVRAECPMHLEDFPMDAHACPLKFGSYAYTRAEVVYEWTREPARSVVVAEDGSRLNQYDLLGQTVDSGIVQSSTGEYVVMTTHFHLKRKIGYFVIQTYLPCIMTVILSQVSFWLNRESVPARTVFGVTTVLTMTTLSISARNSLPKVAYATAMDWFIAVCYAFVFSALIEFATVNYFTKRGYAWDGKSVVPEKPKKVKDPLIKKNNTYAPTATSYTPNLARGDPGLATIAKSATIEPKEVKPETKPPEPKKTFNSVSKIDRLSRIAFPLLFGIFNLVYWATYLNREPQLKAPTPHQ
# Chain of α1 subunit-containing GABAA receptors (P18507 40-475): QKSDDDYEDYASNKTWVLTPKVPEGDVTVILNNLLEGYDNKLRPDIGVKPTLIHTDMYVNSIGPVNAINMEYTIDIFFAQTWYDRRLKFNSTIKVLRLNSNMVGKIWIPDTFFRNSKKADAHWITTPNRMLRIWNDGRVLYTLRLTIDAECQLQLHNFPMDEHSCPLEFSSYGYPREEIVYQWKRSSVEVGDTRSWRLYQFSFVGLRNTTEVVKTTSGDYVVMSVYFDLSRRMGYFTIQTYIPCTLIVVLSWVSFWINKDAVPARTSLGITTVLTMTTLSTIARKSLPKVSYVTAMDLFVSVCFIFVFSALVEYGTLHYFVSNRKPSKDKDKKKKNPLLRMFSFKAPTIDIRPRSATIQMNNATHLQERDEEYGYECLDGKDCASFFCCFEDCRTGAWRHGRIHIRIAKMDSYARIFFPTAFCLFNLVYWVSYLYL
# Chain of α1 subunit-containing GABAA receptors (P28472 26-473 partner): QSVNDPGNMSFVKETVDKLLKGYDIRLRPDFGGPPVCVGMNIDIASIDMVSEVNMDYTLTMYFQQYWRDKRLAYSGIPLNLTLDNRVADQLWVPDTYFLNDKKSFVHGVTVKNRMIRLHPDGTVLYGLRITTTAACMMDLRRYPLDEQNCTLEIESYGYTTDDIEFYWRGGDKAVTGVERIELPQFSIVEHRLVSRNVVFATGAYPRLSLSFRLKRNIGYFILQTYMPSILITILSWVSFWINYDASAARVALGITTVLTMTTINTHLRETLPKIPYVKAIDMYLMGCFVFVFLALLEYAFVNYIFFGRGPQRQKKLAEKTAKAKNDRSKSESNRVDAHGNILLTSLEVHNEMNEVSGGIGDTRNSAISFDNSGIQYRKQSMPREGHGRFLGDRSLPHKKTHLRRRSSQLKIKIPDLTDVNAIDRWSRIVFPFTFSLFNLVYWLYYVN
structure (smiles),measurement,setting,value
CC(C)(O)c1cnn2c(-c3ccc(F)c(-c4c(F)cccc4C#N)c3)cnc2n1 [TPA023B],rates of responding 60 min after 3.0 mg/kg diazepam (precipitated withdrawal),Sprague-Dawley rats,did not alter rates of responding
same,Subtype α1,[1],none
same,"Non-Suppressed, Mean responses/s (SEM)",rhesus monkeys [2]; 0.01 mg/kg,2.0 (0.08) responses/s
same,"Suppressed, Mean responses/s (SEM)",rhesus monkeys [2]; 0.01 mg/kg,0.03 (0.02) responses/s
same,"Non-Suppressed, Mean responses/s (SEM)",rhesus monkeys [2]; 0.1 mg/kg,2.0 (0.15) responses/s
same,"Suppressed, Mean responses/s (SEM)",rhesus monkeys [2]; 0.1 mg/kg,2.46 (0.40)* responses/s
same,"Non-Suppressed, Mean responses/s (SEM)",rhesus monkeys [2]; 1.0 mg/kg,2.1 (0.97) responses/s
same,"Suppressed, Mean responses/s (SEM)",rhesus monkeys [2]; 1.0 mg/kg,2.00 (0.75)* responses/s
same,"effect on non-suppressed responding (mean rates, percent of control)","rhesus monkeys [2]; 100-fold dose range, 0.01 to 1.0 mg/kg",no effects
same,effect on rates of suppressed responding (anti-conflict effect),rhesus monkeys [2]; reaching non-suppressed levels at 0.1 mg/kg,significantly enhanced
same,effect on food-maintained responding,rhesus monkeys [3],did not alter
same,"median break point (BP), highest response requirement",rhesus monkeys [4],160
same,sedation,"rodent, squirrel monkey",minimally sedating
same,occupancy of CNS benzodiazepine binding sites,[5],50-55%
same,accuracy in DMTS and SOSS tasks,rhesus monkeys [6],did not alter accuracy
